Data published in patent publication US11339177B2, “Heteroaryl compounds as inhibitors of necrosis, composition and method using the same” (ACCRO BIOSCIENCE INC., priority 2017, dated 2022).
Where a name gives a salt, the structure may show the parent alone.

How the values were obtained:
Type in all cases: cell-based
L929 cells = test: Necroptosis assay in L929 cells (TNF-α, z-VAD; cell viability by ATP levels); settings: Mus musculus, TNF-α (40 ng/mL), z-VAD (20 μM), 48 hours
Method: […] Then the cells were treated with TNF-α (40 ng/mL) and z-VAD (20 μM) for 48 hours, and the viability of cells was quantified by detecting adenosine triphosphate (ATP) levels. DMSO pretreatment group was used as negative controls, Nec-1 pretreatment group was used as positive controls.

HT29 cells [1] = test: Necroptosis assay in HT29 cells (TNF-α, Smac mimetic, z-VAD; cell viability); settings: Homo sapiens, HT-29; TNF-α (40 ng/mL), Smacmimetic (100 nM), z-VAD (20 μM), 48 hours
Method: Human colon cancer HT29 cells were used in a necroptosis assay. For this assay, HT29 cells were added to 96-well plates and then were pre-treated with 10 μM of the test compound for one hour. Then the cells were treated with TNF-α (40 ng/mL), Smacmimetic (100 nM) and z-VAD (20 μM) for 48 hours, and the viability of cells was quantified. DMSO pretreatment group was used as negative controls, Nec-1 pretreatment group was used as positive controls.
In Table 2, (1) “ND” indicates “not detected;” (2) Explanation for inhibition %: Taking Compound B14 as an example, its inhibition % was 30% (50 nM). It means that the when Compound B14 at a concentration of 50 nM was used in the HT29 Cell Assay, the necrosis of cells were inhibited at 30%.

HT29 cells [2] = test: as above; settings: Homo sapiens, HT-29; inhibition of necrosis in HT29 cells, compound at 50 nM

SMILES | IC50 (L929 cells) [nM] | IC50 (HT29 cells [1]) [nM] | inhibition at 0.05 µM (HT29 cells [2]) [%]
O=C(Nc1nc2ccc(-c3cnc4c(c3)N(C(=O)OC3CCC(F)(F)CC3)CC4)cc2s1)C1CC1 [Compound B70] | 1.3 | 1.2 | –
O=C(Nc1cn2nc(-c3cnc4c(c3)N(C(=O)OC3CCCCC3)CCO4)ccc2n1)C1CC1 [Compound B13] | 0.7 | 1.3 | –
CC(=O)Nc1nc2ccc(-c3cnc4c(c3)N(C(=O)OC3CCCCC3)CCO4)cn2n1 [Compound B7] | 20 | 46 | –
CNC(=O)Nc1nc2ccc(-c3cnc4c(c3)N(C(=O)OC3CCOCC3)CC4)cc2s1 [Compound B60, Tetrahydro-2H-pyran-4-yl6-(2-(3-methylureido)benzo[d]thiazol-6-yl)-2,3-dihydro-1H-pyrrolo[3,2-b]pyridine-1-carboxylate] | 2.8 | 1.3 | –
O=C(Nc1nc2ccc(-c3cnc4c(c3)N(C(=O)OC3CCOCC3)CCO4)nc2s1)C1CC1 [Compound B35] | 1 | 36 | –
CC(C)(C)OC(=O)Nc1cn2nc(-c3cnc4c(c3)N(C(=O)OC3CCOCC3)CCO4)ccc2n1 [Compound B22] | 80 | 114 | 25
Nc1nc2ccc(-c3cnc4c(c3)N(C(=O)OC3CCOCC3)CCO4)cc2s1 [Compound B14, tetrahydro-2H-pyran-4-yl7-(2-aminobenzo[d]thiazol-6-yl)-2,3-dihydro-1H-pyrido[2,3-b][1,4]oxazine-1-carboxylate hydrochloride] | 12.6 | – | 30
CC(=O)Nc1nc2ccc(-c3cnc4c(c3)N(C(=O)OC(C)C3CC3)CCO4)cc2s1 (centres unmarked) [Compound B24] | 5 | 18 | –
O=C(Nc1nc2ccc(-c3cnc4c(c3)N(C(=O)OC3CCOCC3)CCO4)cc2s1)C1CC1 [Compound B16] | 1.5 | 4 | –
CC(=O)Nc1cn2cc(-c3cnc4c(c3)N(C(=O)OC3CCCCC3)CCO4)ccc2n1 [Compound B8] | 1.5 | 1 | –
CC(=O)Nc1cn2nc(-c3cnc4c(c3)N(C(=O)OC3CCOCC3)CCO4)ccc2n1 [Compound B20] | – | – | 20
O=C(Nc1cn2nc(-c3cnc4c(c3)N(C(=O)OC3CCOCC3)CCO4)ccc2n1)C1CC1 [Compound B21] | 31 | 50 | –
CC(=O)Nc1nc2ccc(-c3cnc4c(c3)N(C(=O)OC3CCCCC3)C[C@H](C)O4)cc2s1 [Compound B38] | 15 | 3500 | –
CC(C)OC(=O)N1CCc2ncc(-c3ccc4nc(NC(=O)C5CC5)sc4c3)cc21 [Compound B65] | 4.5 | 3.2 | –
Nc1nc2ccc(-c3cnc4c(c3)N(C(=O)OC3CCCCC3)CCO4)cc2s1 [Compound B1] | 3.6 | 11 | –
CC(=O)Nc1nc2ccc(-c3cnc4c(c3)N(C(=O)OC3CCCCC3)C[C@@H](C)O4)cc2s1 [Compound B37, Cyclohexyl-(R)-7-(2-acetamidobenzo[d]thiazol-6-yl)-3-methyl-2,3-dihydro-1H-pyrido[2,3-b][1,4]oxazine-1-carboxylate] | 30 | 32 | –
O=C(Nc1nc2ccc(-c3cnc4c(c3)N(C(=O)OCC3CC3)CC4)cc2s1)C1CC1 [Compound B66] | 0.73 | 0.39 | –
CN1CCC(OC(=O)N2CCc3ncc(-c4ccc5nc(NC(=O)C6CC6)sc5c4)cc32)CC1 [Compound B68, 1-methylpiperidin-4-yl-6-(2-(cyclopropanecarboxamido)benzo[d]thiazol-6-yl)-2,3-dihydro-1H-pyrrolo[3,2-b]pyridine-1-carboxylate] | 28.3 | 30 | –
Nc1cn2nc(-c3cnc4c(c3)N(C(=O)OC3CCOCC3)CCO4)ccc2n1 [Compound B23] | 11.5 | 147 | 10
CC(=O)Nc1nc2ccc(-c3cnc4c(c3)N(C(=O)OC3CCCOC3)CCO4)cc2s1 (centres unmarked) [Compound B25] | 10 | 17 | –
O=C(Nc1cn2cc(-c3cnc4c(c3)N(C(=O)OC3CCCCC3)CCO4)ccc2n1)C1CC1 [Compound B9] | 0.2 | 0.5 | –
CC(=O)Nc1cn2nc(-c3cnc4c(c3)N(C(=O)OC3CCOCC3)CC4)ccc2n1 [Compound B57] | 90 | 600 | –
O=C(Nc1nc2ccc(-c3cnc4c(c3)N(C(=O)OC3CCS(=O)(=O)CC3)CC4)cc2s1)C1CC1 [Compound B69, 1,1-dioxidotetrahydro-2H-thiopyran-4-yl6-(2-(cyclopropanecarboxamido)benzo[d]thiazol-6-yl)-2,3-dihydro-1H-pyrrolo[3,2-b]pyridine-1-carboxylate] | 15 | 4.8 | –
CC(=O)Nc1cn2cc(-c3cnc4c(c3)N(C(=O)OC3CCOCC3)CCO4)ccc2n1 [Compound B18] | – | – | 10
O=C(Nc1cn2cc(-c3cnc4c(c3)N(C(=O)OC3CCOCC3)CCO4)ccc2n1)C1CC1 [Compound B19] | 10 | 20 | –
O=C(Nc1nc2ccc(-c3cnc4c(c3)N(C(=O)CC3CCOCC3)CC4)nc2s1)C1CC1 [Compound B63] | 8.5 | 25 | –
CC(=O)Nc1nc2ccc(-c3cnc4c(c3)N(C(=O)OC3CCOCC3)CCO4)cc2s1 [Compound B15] | 8.8 | 20 | –
O=C(Nc1nc2ccc(-c3cnc4c(c3)N(C(=O)OC3CCCCC3)CCO4)cc2s1)C1CC1 [Compound B3] | 0.59 | 0.5 | –
